ChEMBL document CHEMBL5724914, “Linking interpersonal differences in gut microbiota composition and drug biotransformation activity” (2024)

Experiments:
[1] = (§1) The drug is tested on Z-019 corresponding to rat gut metagenome with ENA study accession number: PRJEB37062 and ENA sample accession number: ERS12561818 for biotransformation under anaerobic condition. The drug concentrations were measured over 9 timepoints collected between 0 and 24 hours of incubation by liquid-chromatography-coupled mass spectrometry (LC–MS); conditions: 2 µM
[2] = as §1, with “on Z-018” for “on Z-019”, “to pig” for “to rat”, “number: ERS12561817” for “number: ERS12561818”; conditions: 2 µM
[3] = as §1, with “on Z-016” for “on Z-019”, “to mouse” for “to rat”, “number: ERS12561815” for “number: ERS12561818”; conditions: 2 µM
[4] = as §1, with “Z-014” for “Z-019”, “ERS12561814” for “ERS12561818”; conditions: 2 µM
[5] = as §1, with “on Z-011” for “on Z-019”, “to mouse” for “to rat”, “number: ERS12561811” for “number: ERS12561818”; conditions: 2 µM
[6] = as §1, with “on Z-002” for “on Z-019”, “to rabbit” for “to rat”, “number: ERS12561802” for “number: ERS12561818”; conditions: 2 µM
[7] = as §1, with “on WLS-310” for “on Z-019”, “to human” for “to rat”, “number: ERS12561785” for “number: ERS12561818”; conditions: 2 µM
[8] = as §1, with “on WLS-220” for “on Z-019”, “to human” for “to rat”, “number: ERS12561769” for “number: ERS12561818”; conditions: 2 µM
[9] = as §1, with “on WLS-170” for “on Z-019”, “to human” for “to rat”, “number: ERS12561762” for “number: ERS12561818”; conditions: 2 µM
[10] = as §1, with “on WLS-082” for “on Z-019”, “to human” for “to rat”, “number: ERS12561751” for “number: ERS12561818”; conditions: 2 µM
[11] = as §1, with “on WLS-039” for “on Z-019”, “to human” for “to rat”, “number: ERS12561746” for “number: ERS12561818”; conditions: 2 µM
[12] = human gut metagenome, 24 h, 2 µM
[13] = human gut metagenome, 24 h, 2 µM; remark: listed apart in the source
[14] = human gut metagenome, 24 h, 2 µM; remark: listed apart in the source
[15] = human gut metagenome, 24 h, 2 µM; remark: listed apart in the source
[16] = human gut metagenome, 24 h, 2 µM; remark: listed apart in the source
[17] = human gut metagenome, 24 h, 2 µM; remark: listed apart in the source
[18] = human gut metagenome, 24 h, 2 µM; remark: listed apart in the source
[19] = human gut metagenome, 24 h, 2 µM; remark: listed apart in the source
[20] = human gut metagenome, 24 h, 2 µM; remark: listed apart in the source
Note: call rule not given here.

| Structure (SMILES) | Bacterial Biotransformation [1] | Bacterial Biotransformation [2] | Bacterial Biotransformation [3] | Bacterial Biotransformation [4] | Bacterial Biotransformation [5] | Bacterial Biotransformation [6] | Bacterial Biotransformation [7] | Bacterial Biotransformation [8] | Bacterial Biotransformation [9] | Bacterial Biotransformation [10] | Bacterial Biotransformation [11] | Bacterial Biotransformation [12] | Bacterial Biotransformation [13] | Bacterial Biotransformation [14] | Bacterial Biotransformation [15] | Bacterial Biotransformation [16] | Bacterial Biotransformation [17] | Bacterial Biotransformation [18] | Bacterial Biotransformation [19] | Bacterial Biotransformation [20] |
| --- | --- | --- | --- | --- | --- | --- | --- | --- | --- | --- | --- | --- | --- | --- | --- | --- | --- | --- | --- | --- |
| Cc1ccc(S(=O)(=O)NC(=O)NN2CCCCCC2)cc1 [TOLAZAMIDE] | Compound NOT metabolized | Compound metabolized | Compound metabolized | Compound NOT metabolized | Compound NOT metabolized | Compound metabolized | Compound metabolized | Compound metabolized | Compound metabolized | Compound metabolized | Compound metabolized | Compound NOT metabolized | Compound metabolized | Compound NOT metabolized | Compound metabolized | Compound metabolized | Compound metabolized | Compound metabolized | Compound NOT metabolized | Compound NOT metabolized |
| CCOC(=O)[C@H](CCc1ccccc1)N[C@@H](C)C(=O)N1[C@H](C(=O)O)C[C@H]2CCCC[C@@H]21 [TRANDOLAPRIL] | Compound NOT metabolized | Compound metabolized | Compound NOT metabolized | Compound NOT metabolized | Compound NOT metabolized | Compound metabolized | Compound metabolized | Compound metabolized | Compound metabolized | Compound metabolized | Compound metabolized | Compound NOT metabolized | Compound NOT metabolized | Compound NOT metabolized | Compound metabolized | Compound metabolized | Compound metabolized | Compound metabolized | Compound NOT metabolized | Compound metabolized |
| CC(CN(C)C)CN1c2ccccc2CCc2ccccc21.O=C(O)/C=C\C(=O)O (stereo not given) [TRIMIPRAMINE MALEATE] | Compound NOT metabolized | Compound NOT metabolized | Compound NOT metabolized | Compound NOT metabolized | Compound NOT metabolized | Compound NOT metabolized | Compound metabolized | Compound metabolized | Compound metabolized | Compound metabolized | Compound metabolized | Compound NOT metabolized | Compound metabolized | Compound metabolized | Compound NOT metabolized | Compound NOT metabolized | Compound NOT metabolized | Compound NOT metabolized | Compound metabolized | Compound NOT metabolized |
| CC(=O)CC(c1ccccc1)c1c(O)c2ccccc2oc1=O (stereo not given) [WARFARIN] | Compound NOT metabolized | Compound metabolized | Compound metabolized | Compound metabolized | Compound NOT metabolized | Compound metabolized | Compound metabolized | Compound metabolized | Compound metabolized | Compound metabolized | Compound NOT metabolized | Compound metabolized | Compound metabolized | Compound metabolized | Compound metabolized | Compound metabolized | Compound metabolized | Compound metabolized | Compound metabolized | Compound metabolized |
| Cc1ccc(-c2nc3ccc(C)cn3c2CC(=O)N(C)C)cc1 [ZOLPIDEM] | Compound NOT metabolized | Compound NOT metabolized | Compound NOT metabolized | Compound NOT metabolized | Compound NOT metabolized | Compound metabolized | Compound metabolized | Compound metabolized | Compound NOT metabolized | Compound NOT metabolized | Compound NOT metabolized | Compound metabolized | Compound NOT metabolized | Compound NOT metabolized | Compound NOT metabolized | Compound NOT metabolized | Compound NOT metabolized | Compound metabolized | Compound NOT metabolized | Compound NOT metabolized |
